# Assays:
# AMPK [1] = test: Immunoblotting of AMPK activation, oxidative stress-induced senescence; type: cell-based, human
# Experimental: (§1) H2O2 was used to induce oxidative stress-induced cell cycle arrest and senescence. Briefly, the cells were exposed to 200 μM H2O2 for 2 h and cultured for 2 d without H2O2. In the second treatment with H2O2, the cells were split 1:3, exposed to 200 μM H2O2 for 2 h, and cultured with either normal media (control), Lico D (1 μg/mL), ascorbic acid (500 μM AA; a positive control), or the compound C (0.5 μM; AMPK inhibitor) for 72 h. Cellular senescence was confirmed by SA-β-gal assay and Western blotting as described below.
# (§2) Total proteins were extracted with RIPA (radioimmunoprecipitation) lysis buffer system containing phenylmethylsulfonyl fluoride (PMSF), sodium orthovanadate (Na3VO4), and protease inhibitor cocktail (Santa Cruz Biotechnology) at 4° C. for 30 min, and the samples were centrifuged (spun down) at 16,000×g for 20 min. The total protein concentration was quantified using the Pierce BCA Protein Assay Kit (Thermo Fisher Scientific). Proteins (30-50 μg) were loaded and separated via sodium dodecyl sulphate-polyacrylamide gel electrophoresis (SDS-PAGE) gel electrophoresis, followed by blotting on a PVDF membrane (GE Healthcare, Germany). The membranes were blocked with 1% blocking solution containing non-fat dry milk in TBST for 1 h 30 min at RT to prevent non-specific binding of primary antibodies. […]
# LC3, BECN1, SQSTM1 = test: Immunoblotting of autophagy markers, oxidative stress-induced senescence; type: cell-based, human
# Experimental: as §1
# (§3) Total proteins were extracted with RIPA (radioimmunoprecipitation) lysis buffer system containing phenylmethylsulfonyl fluoride (PMSF), sodium orthovanadate (Na3VO4), and protease inhibitor cocktail (Santa Cruz Biotechnology) at 4° C. for 30 min, and the samples were centrifuged (spun down) at 16,000×g for 20 min. The total protein concentration was quantified using the Pierce BCA Protein Assay Kit (Thermo Fisher Scientific). Proteins (30-50 μg) were loaded and separated via sodium dodecyl sulphate-polyacrylamide gel electrophoresis (SDS-PAGE) gel electrophoresis, followed by blotting on a PVDF membrane (GE Healthcare, Germany). The membranes were blocked with 1% blocking solution containing non-fat dry milk in TBST for 1 h 30 min at RT to prevent non-specific binding of primary antibodies. Subsequently, the membranes were incubated overnight at 4° C. with the corresponding primary antibodies. Secondary antibodies were conjugated with horseradish peroxidase and visualized using an enhanced chemiluminescence detection kit (GE Healthcare). Densitometry analysis was performed using the ImageJ software.
# hBM-MSCs [2] = test: MTT cell viability assay (cytotoxic effect); type: cell-based, human; settings: Lico D 0-8 μg/mL for 12 h, MTT (FIG. 1A)
# Experimental: (§4) Human bone marrow derived mesenchymal stem cells (hBM-MSCs) were acquired from Cell Engineering for Origin (CEFO), Seoul, Korea. The cells were free from bacterial, viral, and mycoplasmal contamination. […] The cells were grown in Dulbecco's modified Eagle medium (DMEM) (Gibco, Life Technologies, Grand Island, N.Y., USA) supplemented with 10% FBS (Gibco, Life Technologies, USA), L-glutamine, and 1% penicillin/streptomycin solution (Lonza, Walkersville, Md., USA). The cells were manipulated under sterile conditions in a humidified incubator at 37° C. with 5% CO2 and 95% air. The cells were subcultured as soon as they reached confluence. The cells were serially monitored under bright field microscopy (Nikon Eclipse TS100; Tokyo, Japan), and the media was changed every 3 d.
# (§5) The cytotoxic and protective effects of Lico D in hBM-MSCs were determined using the methylthiazolyldiphenyl-tetrazolium bromide (MTT) test, according to the manufacturer's instructions. To check the cytotoxic effect, hBM-MSCs were grown in a 96-well plate at a density of 8×10^3 cells per well. […] Cell viability was assessed using a spectrophotometer (Multiskan FC, Thermo Fisher Scientific). […] Following H2O2 treatment, cells were treated with MTT solution for 2 h, and cell viability was evaluated.
# hBM-MSCs [3] = test: MTT cell viability assay (protective effect against H2O2); type: cell-based, human; settings: hBM-MSCs pre-treated with 1 μg/mL for 12 h, then H2O2 0-1 mM for 1 h (FIG. 1B)
# Experimental: as §4, §5
# hBM-MSCs [4] = test: Detection of intracellular ROS (DCFH-DA); type: cell-based, human; settings: hBM-MSCs pretreated 1 μg/mL 12 h, H2O2 0.7 mM 1 h, vs H2O2 alone (FIGS. 1C, 1D)
# Experimental: (§6) To quantify the production of intracellular ROS, we used cell permeable substrate 2′,7′-dichlorofluorescin diacetate (DCFH-DA), which can be converted to highly detectable fluorescent 2′,7′-dichlorofluorescein upon oxidation. The cells were cultured in 12-well plates and 96-well plates for 24 h. After 24 h of culture, the cells were treated with 1 μg/mL of Lico D for 12 h and incubated with 20 μM DCFH-DA for 30 min. The cells were then washed with a phosphate-buffered saline (PBS) solution and incubated with H2O2 (0.7 mM) for 1 h at 37° C. The cells were then fixed with 4% paraformaldehyde at room temperature (RT) for 15 min and the nuclei were stained with Hoechst. Then, the cells were observed under a fluorescent microscope (Nikon Eclipse Ti2; Japan), and the images were captured (Nikon DS-Ri2; Japan) and analyzed using the Image J software. To analyze the apoptotic markers, the cells were pretreated with 1 μg/mL of Lico D followed by incubation with H2O2 (0.7 mM) for 1 h at 37° C., and then the proteins were isolated as described below.
# [5] = system: p53 and cleaved caspase 3; test: Immunoblotting of apoptotic markers after H2O2; type: cell-based, human; settings: hBM-MSCs pretreated 1 μg/mL, H2O2 0.7 mM 1 h, vs H2O2 alone (FIG. 1E)
# Experimental: as §6, with “To analyze the apoptotic markers, the cells were pretreated with 1 μg/mL of Lico D followed by incubation with H2O2 (0.7 mM) for 1 h at 37° C., and then the proteins were isolated as described below.” left out
# Total proteins were extracted with RIPA (radioimmunoprecipitation) lysis buffer system containing phenylmethylsulfonyl fluoride (PMSF), sodium orthovanadate (Na3VO4), and protease inhibitor cocktail (Santa Cruz Biotechnology) at 4° C. for 30 min, and the samples were centrifuged (spun down) at 16,000×g for 20 min. The total protein concentration was quantified using the Pierce BCA Protein Assay Kit (Thermo Fisher Scientific). […]
# hBM-MSCs [6] = test: Senescence-associated β-galactosidase (SA-β-gal) staining, oxidative stress-induced senescence; type: cell-based, human; settings: double time 200 μM H2O2 treated hBM-MSCs (40% without treatment); Lico D 1 μg/mL or ascorbic acid 500 μM for 72 h (FIG. 2C)
# Experimental: as §1
# Senescence-associated β-galactosidase positive cells were identified using an SA-β-gal assay kit (Cell Signaling Technology, Danvers, Mass., USA) according to the manufacturer's instructions. Briefly, after 72 h of treatment, cells were washed with phosphate-buffered saline (PBS) and fixed with 1× fixative for 10-15 min at room temperature. The β-galactosidase staining solution (pH 6.0) was added to the plates and incubated overnight in a dry incubator at 37° C. without CO2. The next day, the β-Gal positive cells were observed under a light microscope (Nikon Eclipse TS100; Tokyo, Japan) and captured using a Canon i-Solution IMTcam3 digital camera (Tokyo, Japan).
# p53, p16, and p21 = test: Immunoblotting of senescence markers, oxidative stress-induced senescence; type: cell-based, human; settings: double time H2O2 treated hBM-MSCs, Lico D 1 μg/mL 72 h (FIGS. 3A-3D)
# Experimental: as §1, §2
# [7] = Body weight in D-Gal induced aging mice; type: in vivo, C57BL/6 mice; settings: D-Gal 150 mg/kg/day i.p. 10 weeks, Lico D 0.5 mg/kg/day i.p. 8 weeks, measured weekly (FIG. 5B)
# Experimental: (§7) Six-week-old male C57BL/6 mice (weighing 22±2 g) were purchased from Samtako Bio Korea Co., Ltd. (Osan, Gyeonggi, Korea) and maintained at 23-25° C. under a 12-h light and 12-h dark cycle with free access to food and water in a pathogen-free facility. All animal experiments were approved by the Institutional Animal Care and Use Committee of Chosun University (CIACUC2020-S0009). After a week of acclimation, the animals were randomly divided into three groups (four mice per group): normal control group (PBS alone), D-Galactose model group (150 mg/kg/day), and D-Galactose +Lico D (0.5 mg/kg/day). The mice were intraperitoneally injected with either PBS or D-Gal for 10 weeks and from the third week onwards, the mice were intraperitoneally injected with Lico D for 8 weeks (FIG. 5A). Body weight was measured every week until the end of the experiment. Thereafter, the MWM (Morris water maze) test was performed for one week.
# RAGE = test: qRT-PCR of RAGE in D-Gal induced aging mice; type: in vivo, C57BL/6 mice; settings: hippocampus, Lico D 0.5 mg/kg/day i.p. vs D-Gal treated mice (FIG. 5C)
# Experimental: as §7
# RNAisoPlus (Takara) was used to isolate total RNA from the hippocampus and heart tissues. Total RNA (2.5 μg) was then reverse-transcribed using PrimescriptTM II 1st strand cDNA synthesis kit (Takara) and quantified using the Power SYBR Green PCR Master mix (Applied BioSystems). To amplify β-actin and RAGE, the mouse primers in Table 1 below were used. […]
# D-Gal induced aging mice = test: Morris water maze (MWM) test in D-Gal induced aging mice; type: in vivo, C57BL/6 mice
# Experimental: as §7
# p53 and p21 = test: Immunoblotting of senescence markers in heart and hippocampus tissues of D-Gal induced aging mice; type: in vivo, C57BL/6 mice
# Experimental: as §3, with “Densitometry analysis was performed using the ImageJ software.” left out
# (§8) Six-week-old male C57BL/6 mice (weighing 22±2 g) were purchased from Samtako Bio Korea Co., Ltd. (Osan, Gyeonggi, Korea) and maintained at 23-25° C. under a 12-h light and 12-h dark cycle with free access to food and water in a pathogen-free facility. […] Body weight was measured every week until the end of the experiment. […]
# AMPK [8] = test: Immunoblotting of AMPK activation in heart and hippocampus tissues of D-Gal induced aging mice; type: in vivo, C57BL/6 mice
# Experimental: as §3, with “Densitometry analysis was performed using the ImageJ software.” left out
# as §8
# LC3 II, BECN1 and SQSTM1 = test: Immunoblotting of autophagy markers in heart tissue of D-Gal induced aging mice; type: in vivo, C57BL/6 mice; settings: Lico D 0.5 mg/kg/day i.p. vs D-Gal-treated mice (FIGS. 8A-8D)
# Experimental: as §3, with “Densitometry analysis was performed using the ImageJ software.” left out
# as §8
# [9] = system: human melanoma, oral squamous cell carcinoma and lung adenocarcinoma; settings: previously reported; cited from earlier work
# [10] = oxidative stress-induced senescent hBM-MSCs, Lico D 1 μg/mL (FIGS. 4A-4D)
smiles,measurement,setting,value
"c1cc(-c2cnn3cc(-c4ccc(OCCN5CCCCC5)cc4)cnc23)ccn1 [CC, reference compound]",Lico D-mediated AMPK activation upon treatment with CC,"AMPK [1]; senescent hBM-MSCs, compound C 0.5 μM with Lico D (FIGS. 3E, 3F)",abolished
same,AMPK-mediated autophagy upon treatment with CC,"LC3, BECN1, SQSTM1; senescent hBM-MSCs, compound C 0.5 μM with Lico D (FIGS. 4A-4D)",inhibited
"COc1c(/C=C/C(=O)c2ccc(O)c(CC=C(C)C)c2)ccc(O)c1O [Lico D, Licochalcone D]",cell viability,hBM-MSCs [2],no significant changes in cell viability
same,cell viability under H2O2 oxidative stress,hBM-MSCs [3],significantly increased
same,intracellular ROS levels,hBM-MSCs [4],significantly reduced
same,expression of apoptotic proteins p53 and cleaved caspase 3,[5],reduced
same,number of SA-β-gal-positive cells,hBM-MSCs [6],13%
same,"expression of senescence markers p53, p16, and p21","p53, p16, and p21",reduced
same,AMPK activation (pAMPK/AMPK),"AMPK [1]; oxidative stress-induced senescent hBM-MSCs, Lico D 1 μg/mL 72 h (FIGS. 3E, 3F)",significantly restored
same,expression levels of LC3 and BECN1,"LC3, BECN1, SQSTM1; [10]",significantly increased
same,expression of SQSTM1,"LC3, BECN1, SQSTM1; [10]",decreased
same,body weight,[7],No significant differences
same,RAGE expression at the mRNA level,RAGE,significantly reduced
same,number of times of target platform crossing (MWM),D-Gal induced aging mice; Lico D 0.5 mg/kg/day i.p. vs D-Gal treated mouse (FIG. 6C),tendency of increasing
same,escape latency (MWM),"D-Gal induced aging mice; Lico D 0.5 mg/kg/day i.p. vs D-Gal treated mouse, similar to control (FIG. 6A)",markedly short time
same,duration in target quadrant (MWM),"D-Gal induced aging mice; Lico D 0.5 mg/kg/day i.p. vs D-Gal treated mouse, similar to control (FIG. 6B)",significantly longer time
same,"expression levels of p53 and p21, heart","p53 and p21; heart tissue, Lico D 0.5 mg/kg/day i.p. vs D-Gal-injected mice (FIGS. 7A-7C)",significantly reduced
same,"expression levels of p53 and p21, hippocampus","p53 and p21; hippocampus tissue, Lico D 0.5 mg/kg/day i.p. vs D-Gal-injected mice (FIGS. 7F-7H)",significantly reduced
same,"AMPK activation, heart","AMPK [8]; heart tissue, Lico D 0.5 mg/kg/day i.p. vs D-Gal treatment (FIGS. 7D, 7E)",significantly increased
same,"AMPK activation, hippocampus","AMPK [8]; hippocampus tissue, Lico D 0.5 mg/kg/day i.p. vs D-Gal treatment (FIGS. 7I, 7J)",significantly increased
same,"expression of autophagy markers (LC3 II, BECN1 and SQSTM1)","LC3 II, BECN1 and SQSTM1",markedly increased
same,anticancer activity,[9],anticancer activity in a dose-dependent manner
"O=C1O[C@H]([C@@H](O)CO)C(O)=C1O [ascorbic acid, reference compound]",number of SA-β-gal-positive cells,hBM-MSCs [6],17%

# — patent US20230190677A1, “PHARMACEUTICAL COMPOSITION FOR PREVENTING OR TREATING AGING-RELATED DISEASES” (INDUSTRY ACADEMIC COOPERATION FOUNDATION CHOSUN UNIVERSITY, priority 2021, published 2023)
